Laboratory results published in US12384797B2, “Thioeno[3,2-b] pyridin-7-amine compounds for treating familial dysautonomia” (PTC THERAPEUTICS, INC., priority 2019, dated 2025).

Test system: Elongator complex protein 1 (ELP1, also referred to as IKBKAP)
Assay: IKBKAP-HTRF assay (IKBKAP protein in lysates of FD patient-derived fibroblasts)
Assay type: cell-based, human
Settings: 48 hours incubation, 7-point concentration curve
Procedure, shortened: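 Sandwich HTRF with two labelled anti-IKAP antibodies (overnight, 4 °C) measured IKBKAP in lysates of FD patient fibroblasts. Cells were exposed to compound for 48 h at 37 °C (7-point curve, 3.16-fold steps, triplicates). EC2x is the dose doubling IKBKAP versus DMSO control; MFI is sample ΔF divided by vehicle ΔF.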

Row | Compound | EC2x for IKBKAP protein expression (concentration producing two times the amount of IKBKAP protein vs DMSO vehicle control) | MFI (maximum fold increase in IKBKAP protein abundance relative to the vehicle control)
1 | CC[C@H](N)Cc1sc2c(NCc3cccs3)cc(Cl)nc2c1Br [Compound 73, 2-[(2S)-2-aminobutyl]-3-bromo-5-chloro-N-[(thiophen-2-yl)methyl]thieno[3,2-b]pyridin-7-amine] | ***** (≤0.005 μM is indicated by five stars (*****)) | ***** (>4.9 is indicated by five stars (*****))
2 | N[C@@H](CCF)Cc1sc2c(NCc3cccs3)cc(Cl)nc2c1Br [Compound 74, 2-[(2S)-2-amino-4-fluorobutyl]-3-bromo-5-chloro-N-[(thiophen-2-yl)methyl]thieno[3,2-b]pyridin-7-amine] | ***** (≤0.005 μM is indicated by five stars (*****)) | ***** (>4.9 is indicated by five stars (*****))
3 | N[C@@H](CF)Cc1sc2c(NCc3cccs3)cc(Cl)nc2c1Br [Compound 76, 2-[(2R)-2-amino-3-fluoropropyl]-3-bromo-5-chloro-N-[(thiophen-2-yl)methyl]thieno[3,2-b]pyridin-7-amine] | ***** (≤0.005 μM is indicated by five stars (*****)) | ***** (>4.9 is indicated by five stars (*****))
4 | CC[C@H](N)Cc1sc2c(NCc3nccs3)cc(Cl)nc2c1Br [Compound 78, 2-[(2S)-2-aminobutyl]-3-bromo-5-chloro-N-[(1,3-thiazol-2-yl)methyl]thieno[3,2-b]pyridin-7-amine] | ***** (≤0.005 μM is indicated by five stars (*****)) | ***** (>4.9 is indicated by five stars (*****))
5 | CC(C)C[C@H](N)Cc1sc2c(NCc3nccs3)cc(Cl)nc2c1Cl [Compound 79, 2-[(2S)-2-amino-4-methylpentyl]-3,5-dichloro-N-[(1,3-thiazol-2-yl)methyl]thieno[3,2-b]pyridin-7-amine] | ***** (≤0.005 μM is indicated by five stars (*****)) | ***** (>4.9 is indicated by five stars (*****))
6 | Cc1c(C[C@@H](N)CF)sc2c(NCc3ccco3)cc(Cl)nc12 [Compound 81, 2-[(2R)-2-amino-3-fluoropropyl]-5-chloro-N-[(furan-2-yl)methyl]-3-methylthieno[3,2-b]pyridin-7-amine] | ***** (≤0.005 μM is indicated by five stars (*****)) | ***** (>4.9 is indicated by five stars (*****))
7 | CC[C@H](N)Cc1sc2c(NCc3nccs3)cc(Cl)nc2c1Cl [Compound 82, 2-[(2S)-2-aminobutyl]-3,5-dichloro-N-[(1,3-thiazol-2-yl)methyl]thieno[3,2-b]pyridin-7-amine] | ***** (≤0.005 μM is indicated by five stars (*****)) | ***** (>4.9 is indicated by five stars (*****))
8 | CC[C@H](N)Cc1sc2c(NCc3cccs3)cc(Cl)nc2c1Cl [Compound 83, 2-[(2S)-2-aminobutyl]-3,5-dichloro-N-[(thiophen-2-yl)methyl]thieno[3,2-b]pyridin-7-amine] | ***** (≤0.005 μM is indicated by five stars (*****)) | ***** (>4.9 is indicated by five stars (*****))
9 | N[C@@H](CF)Cc1sc2c(NCc3cccs3)cc(Cl)nc2c1Cl [Compound 84, 2-[(2R)-2-amino-3-fluoropropyl]-3,5-dichloro-N-[(thiophen-2-yl)methyl]thieno[3,2-b]pyridin-7-amine] | ***** (≤0.005 μM is indicated by five stars (*****)) | ***** (>4.9 is indicated by five stars (*****))
10 | CC[C@H](N)Cc1sc2c(NCc3nccs3)cc(Cl)nc2c1C [Compound 85, 2-[(2S)-2-aminobutyl]-5-chloro-3-methyl-N-[(1,3-thiazol-2-yl)methyl]thieno[3,2-b]pyridin-7-amine] | ***** (≤0.005 μM is indicated by five stars (*****)) | ***** (>4.9 is indicated by five stars (*****))
11 | N[C@@H](CF)Cc1sc2c(NCc3nccs3)cc(Cl)nc2c1C1CC1 [Compound 87, 2-[(2R)-2-amino-3-fluoropropyl]-5-chloro-3-cyclopropyl-N-[(1,3-thiazol-2-yl)methyl]thieno[3,2-b]pyridin-7-amine] | *** (between >0.02 μM and ≤0.5 μM is indicated by three stars (***)) | *** (between >2.9 and ≤3.9 is indicated by three stars (***))
12 | N[C@@H](CCF)Cc1sc2c(NCc3nccs3)cc(Cl)nc2c1Br [Compound 88, 2-[(2S)-2-amino-4-fluorobutyl]-3-bromo-5-chloro-N-[(1,3-thiazol-2-yl)methyl]thieno[3,2-b]pyridin-7-amine] | ***** (≤0.005 μM is indicated by five stars (*****)) | ***** (>4.9 is indicated by five stars (*****))
13 | N[C@@H](CCO)Cc1sc2c(NCc3nccs3)cc(Cl)nc2c1Br [Compound 89, (3S)-3-amino-4-(3-bromo-5-chloro-7-{[(1,3-thiazol-2-yl)methyl]amino}thieno[3,2-b]pyridin-2-yl)butan-1-ol] | ***** (≤0.005 μM is indicated by five stars (*****)) | ***** (>4.9 is indicated by five stars (*****))
14 | N[C@@H](CF)Cc1sc2c(NCc3nccs3)cc(Cl)nc2c1Cl [Compound 90, 2-[(2R)-2-amino-3-fluoropropyl]-3,5-dichloro-N-[(1,3-thiazol-2-yl)methyl]thieno[3,2-b]pyridin-7-amine] | ***** (≤0.005 μM is indicated by five stars (*****)) | ***** (>4.9 is indicated by five stars (*****))
15 | Cc1c(C[C@@H](N)CF)sc2c(NCc3cccs3)cc(Cl)nc12 [Compound 91, 2-[(2R)-2-amino-3-fluoropropyl]-5-chloro-3-methyl-N-[(thiophen-2-yl)methyl]thieno[3,2-b]pyridin-7-amine] | ***** (≤0.005 μM is indicated by five stars (*****)) | ***** (>4.9 is indicated by five stars (*****))
16 | Cc1c(C[C@@H](N)CCF)sc2c(NCc3cccs3)cc(Cl)nc12 [Compound 92, 2-[(2S)-2-amino-4-fluorobutyl]-5-chloro-3-methyl-N-[(thiophen-2-yl)methyl]thieno[3,2-b]pyridin-7-amine] | ***** (≤0.005 μM is indicated by five stars (*****)) | ***** (>4.9 is indicated by five stars (*****))
17 | N[C@@H](CCF)Cc1sc2c(NCc3ccco3)cc(Cl)nc2c1Cl [Compound 93, 2-[(2S)-2-amino-4-fluorobutyl]-3,5-dichloro-N-[(furan-2-yl)methyl]thieno[3,2-b]pyridin-7-amine] | ***** (≤0.005 μM is indicated by five stars (*****)) | ***** (>4.9 is indicated by five stars (*****))
18 | N[C@@H](CF)Cc1sc2c(NCc3ccco3)cc(Cl)nc2c1Cl [Compound 94, 2-[(2R)-2-amino-3-fluoropropyl]-3,5-dichloro-N-[(furan-2-yl)methyl]thieno[3,2-b]pyridin-7-amine] | ***** (≤0.005 μM is indicated by five stars (*****)) | **** (between >3.9 and ≤4.9 is indicated by four stars (****))
19 | Cc1c(C[C@@H](N)CCF)sc2c(NCc3ccco3)cc(Cl)nc12 [Compound 95, 2-[(2S)-2-amino-4-fluorobutyl]-5-chloro-N-[(furan-2-yl)methyl]-3-methylthieno[3,2-b]pyridin-7-amine] | ***** (≤0.005 μM is indicated by five stars (*****)) | ***** (>4.9 is indicated by five stars (*****))
20 | C[C@H](N)Cc1sc2c(NCc3nccs3)cc(Cl)nc2c1C1CC1 [Compound 96, 2-[(2S)-2-aminopropyl]-5-chloro-3-cyclopropyl-N-[(1,3-thiazol-2-yl)methyl]thieno[3,2-b]pyridin-7-amine] | **** (between >0.005 μM and ≤0.02 μM is indicated by four stars (****)) | ***** (>4.9 is indicated by five stars (*****))
